From patent US20250368640A1 (BIOFRONT LTD, priority 2022, published 2025)
Read-outs that look alike come from different tables or passages of the source.

How the values were obtained:
FLT3 = FLT3 degradation assay (western blot, MV-411 cells); type: cell-based, human
Method: (§1) MV-411 cells were cultured with medium (IMDM) prior to use. Cells were then incubated with a variety of concentrations of compound. After incubation, the cells were collected and lysed. The protein concentration was determined by BCA protein assay kit from Thermo (23227). The FLT3 protein level was determined by western blots, using anti-human FLT3 monoclonal antibody from CST (3462S). Proteins were loaded into each well of the pre-casting gels and subjected to electrophoretic separation by SDS-PAGE. The protein resolved by SDS-PAGE were transferred to PVDF, blocked by 5% skim milk, and probed with anti-human FLT3 antibody or -actin antibody from CST (3700S), using standard western blotting procedure.

HPK1 [1] = target: T1, HPK1 (Homo sapiens (Human), UniProt Q92918); test: HPK1 enzyme inhibition assay (ADP-Glo); type: biochemical
Method: HPK1 Enzyme Inhibition Assay
The compound was dissolved in 100% DMSO at the concentration of 10 mM. The HPK1 protein was purchased from Signal Chem (M23-11G-10). 2.5 μL per well of 2×HPK1 protein was added to assay plate containing the test compound, centrifuged at 1500 rpm for 1 minute, and then incubated at 25° C. for 60 minutes. MBP protein was purchased from Signal Chem (M42-51N) and ATP was purchased from Promega (V9102). The two were added 2.5 μL per well mixture of 2×MBP (0.2 ug/ul) and ATP (20 μM), centrifuged at 1500 rpm for 1 minute, then incubated at 25° C. for 60 minutes. Then added 5 μL of ADP-Glo from Promega (V9102) to the assay plate and depleted the unconsumed ATP for 60 minutes. Then centrifuged at 1500 rpm for 1 minute and incubated at 25° C. for 60 minutes. Finally, 10 μL of the kinase assay reagent from Promega (V9102) was added to the assay plate to convert ADP to ATP, centrifuged at 1500 rpm for 1 minute, incubate at 25° C. for 40 minutes. After 40 minutes incubation, the […] was determined. Based on the results, the IC50 value of the compound was calculated.
Target sequence in this assay (Q92918 1-346 limits assumed): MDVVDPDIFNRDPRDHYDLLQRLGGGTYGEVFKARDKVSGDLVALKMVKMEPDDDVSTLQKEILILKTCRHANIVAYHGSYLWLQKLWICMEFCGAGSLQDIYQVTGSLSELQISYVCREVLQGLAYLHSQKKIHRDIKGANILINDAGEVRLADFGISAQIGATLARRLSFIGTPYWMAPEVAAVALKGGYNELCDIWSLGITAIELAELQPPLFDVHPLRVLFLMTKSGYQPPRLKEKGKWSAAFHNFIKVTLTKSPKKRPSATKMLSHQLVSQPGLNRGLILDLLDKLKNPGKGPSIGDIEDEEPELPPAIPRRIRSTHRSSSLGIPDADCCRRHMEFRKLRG

Aurora A [2] = target: T2, Aurora A (Homo sapiens (Human), UniProt O14965); test: Aurora A degradation assay (western blot); type: cell-based; details: for DC50: read-out: Aurora A DC50; for Dmax: read-out: Aurora A Dmax
Method: Aurora A Degradation Assay
as §1, with “IMR32” for “MV-411”, “cultured with medium (MEM), Huh7 cells were cultured with medium (DMEM) and HL-60 cells were culture” for “cultured”, “AURKA” for “FLT3”, “(14475S).” for “(3462S).”, “β-actin” for “-actin”, “(3700S) or COX IV antibody from CST (4850S),” for “(3700S),”

HPK1 [3] = target: T1, HPK1; test: HPK1 degradation assay (western blot, human PBMC); type: cell-based; details: for Dmax: read-out: HPK1 Dmax
Method: Frozen human PBMC were purchased from Shanghai OribioTech and recovered with culture medium (RMPI1640) prior to use. The cells were then incubated with a variety of concentrations of compound. After incubation, the cells were collected and lysed. The protein concentration was determined by BCA protein assay kit from Thermo (23227). The HPK1 protein level was determined by western blots, using anti-human HPK1 polyclonal antibody from CST (4472S). Proteins were loaded into each well of the pre-casting gels and subjected to electrophoretic separation by SDS-PAGE. The protein resolved by SDS-PAGE were transferred to PVDF, blocked by 5% skim milk, and probed with anti-human HPK1 antibody or β-actin antibody from CST (3700S), using standard western blotting procedure.
Target sequence in this assay (Q92918 whole entry): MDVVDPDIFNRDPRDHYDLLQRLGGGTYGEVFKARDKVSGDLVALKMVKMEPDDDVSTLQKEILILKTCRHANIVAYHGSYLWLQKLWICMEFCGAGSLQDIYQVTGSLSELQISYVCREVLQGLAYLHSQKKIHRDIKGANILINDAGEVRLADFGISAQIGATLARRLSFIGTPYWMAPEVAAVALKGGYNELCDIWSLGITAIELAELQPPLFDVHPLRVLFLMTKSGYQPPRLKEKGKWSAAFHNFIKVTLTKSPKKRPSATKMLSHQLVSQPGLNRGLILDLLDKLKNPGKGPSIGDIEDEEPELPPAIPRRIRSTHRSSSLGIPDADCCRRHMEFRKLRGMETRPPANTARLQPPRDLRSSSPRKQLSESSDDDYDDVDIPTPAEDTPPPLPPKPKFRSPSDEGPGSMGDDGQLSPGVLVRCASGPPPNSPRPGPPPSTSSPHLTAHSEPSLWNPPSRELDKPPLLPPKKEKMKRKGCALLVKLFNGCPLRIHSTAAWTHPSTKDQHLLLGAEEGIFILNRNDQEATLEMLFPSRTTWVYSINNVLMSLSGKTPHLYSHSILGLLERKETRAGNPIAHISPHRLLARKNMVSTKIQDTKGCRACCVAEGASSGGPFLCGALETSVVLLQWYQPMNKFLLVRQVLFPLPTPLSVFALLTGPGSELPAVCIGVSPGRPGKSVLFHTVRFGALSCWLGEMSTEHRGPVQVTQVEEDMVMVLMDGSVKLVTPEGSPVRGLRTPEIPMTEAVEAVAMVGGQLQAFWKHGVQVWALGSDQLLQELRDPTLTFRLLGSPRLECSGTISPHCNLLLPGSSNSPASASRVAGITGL

MEK 1/2 = MEK 1/2 degradation assay (western blot); type: cell-based, human
Method: MEK 1/2 Degradation Assay
as §1, with “(IMDM) and IMR32 cells were cultured with medium (MEM)” for “(IMDM)”, “anti-human MEK 1/2 polyclonal” for “anti-human FLT3 monoclonal”, “CST (9122S).” for “CST (3462S).”, “anti-human MEK1/2” for “anti-human FLT3”, “or β-actin” for “or -actin”, “CST (3700S) and COX IV antibody from CST (4850S),” for “CST (3700S),”

FLT3-ITD = FLT3-ITD (Homo sapiens, UniProt P36888, ITD); test: FLT3-ITD enzyme inhibition assay; type: biochemical
Method: FLT3-ITD Enzyme Inhibition Assay
The compound was dissolved in 100% DMSO at the concentration of 10 mM. The FLT3-ITD protein was purchased from Invitrogen (PV6191). 10 μL per well of 2.5×FLT3-ITD protein was added to assay plate containing the test compound, centrifuged at 1000 rpm for 1 minute, and then incubated at 25° C. for 10 minutes. Peptide 2 was purchased from GL Biochem (112394) and ATP was purchased from Promega (V9102). The two were added 15 μL per well mixture of 1.67× peptide 2 (final conc. is 3 μM) and ATP (final conc. is 97.2 μM), centrifuged at 1000 rpm for 1 minute, then incubated at 25° C. for 40 minutes. Then added 30 μL of stop buffer (100 mM HEPES pH7.5, 0.015% Brij-35, 0.2% Coating Reagent 3, 50 mM EDTA) to the assay plate and centrifuged at 1000 rpm for 1 minute. the product was determined. Based on the results, the IC50 value of the compound was calculated.

Aurora A [4] = target: T2, Aurora A; test: Aurora A enzyme inhibition assay; type: biochemical
Method: Aurora A Enzyme Inhibition Assay
The compound was dissolved in 100% DMSO at the concentration of 10 mM. The Aurora A protein was purchased from Carna (05-101). 10 μL per well of 2.5×Aurora A protein was added to assay plate containing the test compound, centrifuged at 1000 rpm for 1 minute, and then incubated at 25° C. for 10 minutes. Peptide 21 was purchased from GL Biochem (116370) and ATP was purchased from Promega (V9102). The two were added 15 μL per well mixture of 1.67× peptide 21 (final conc. is 3 μM) and ATP (final conc. is 14.58 μM), centrifuged at 1000 rpm for 1 minute, then incubated at 25° C. for 40 minutes. Then added 30 μL of stop buffer (100 mM HEPES pH7.5, 0.015% Brij-35, 0.2% Coating Reagent 3, 50 mM EDTA) to the assay plate and centrifuged at 1000 rpm for 1 minute. the product was determined. Based on the results, the IC50 value of the compound was calculated.

[5] = read-out: FLT3 DC50, protein degradation
[6] = protein degradation, IMR32, Huh7 or HL-60 cells
[7] = protein degradation, human PBMC, read-out: HPK1 DC50
[8] = protein degradation, MV-411 or IMR32 cells
[9] = read-out: MEK 1/2 DC50; protein degradation, MV-411 or IMR32 cells
[10] = enzyme inhibition, read-out: FLT3-ITD IC50
[11] = protein degradation, class symbol, read-out: FLT3 DC50 (nM)/Dmax (%)
[12] = protein degradation, MV-411 or IMR32 cells; read-out: MEK 1/2 DC50
[13] = protein degradation, human PBMC

Chain of FLT3-ITD (P36888 whole entry, looked up, change not shown): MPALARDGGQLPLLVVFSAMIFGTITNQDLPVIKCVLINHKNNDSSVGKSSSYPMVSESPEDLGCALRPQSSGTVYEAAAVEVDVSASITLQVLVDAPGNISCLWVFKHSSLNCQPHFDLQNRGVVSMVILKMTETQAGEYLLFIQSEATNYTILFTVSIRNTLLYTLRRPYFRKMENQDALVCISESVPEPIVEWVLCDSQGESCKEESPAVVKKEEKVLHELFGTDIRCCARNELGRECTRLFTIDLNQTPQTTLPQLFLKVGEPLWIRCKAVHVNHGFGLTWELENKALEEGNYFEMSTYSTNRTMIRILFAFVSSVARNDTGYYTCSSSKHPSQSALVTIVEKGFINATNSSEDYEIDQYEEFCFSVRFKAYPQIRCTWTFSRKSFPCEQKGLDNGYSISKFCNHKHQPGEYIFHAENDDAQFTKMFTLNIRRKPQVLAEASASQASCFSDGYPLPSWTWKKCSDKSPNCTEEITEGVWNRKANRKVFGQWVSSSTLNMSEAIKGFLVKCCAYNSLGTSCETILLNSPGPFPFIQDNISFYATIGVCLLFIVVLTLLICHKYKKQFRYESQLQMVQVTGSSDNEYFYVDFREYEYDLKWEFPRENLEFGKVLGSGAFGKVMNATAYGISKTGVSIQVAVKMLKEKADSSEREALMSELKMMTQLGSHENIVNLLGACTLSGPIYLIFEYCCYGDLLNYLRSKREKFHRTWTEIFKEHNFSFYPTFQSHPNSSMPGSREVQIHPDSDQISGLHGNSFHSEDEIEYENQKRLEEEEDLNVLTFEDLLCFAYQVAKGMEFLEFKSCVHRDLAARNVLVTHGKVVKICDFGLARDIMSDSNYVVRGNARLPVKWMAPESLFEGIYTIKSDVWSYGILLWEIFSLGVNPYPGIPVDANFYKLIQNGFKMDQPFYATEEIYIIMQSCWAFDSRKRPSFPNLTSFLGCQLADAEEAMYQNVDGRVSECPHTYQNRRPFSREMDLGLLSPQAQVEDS
T2 sequence (O14965 whole entry): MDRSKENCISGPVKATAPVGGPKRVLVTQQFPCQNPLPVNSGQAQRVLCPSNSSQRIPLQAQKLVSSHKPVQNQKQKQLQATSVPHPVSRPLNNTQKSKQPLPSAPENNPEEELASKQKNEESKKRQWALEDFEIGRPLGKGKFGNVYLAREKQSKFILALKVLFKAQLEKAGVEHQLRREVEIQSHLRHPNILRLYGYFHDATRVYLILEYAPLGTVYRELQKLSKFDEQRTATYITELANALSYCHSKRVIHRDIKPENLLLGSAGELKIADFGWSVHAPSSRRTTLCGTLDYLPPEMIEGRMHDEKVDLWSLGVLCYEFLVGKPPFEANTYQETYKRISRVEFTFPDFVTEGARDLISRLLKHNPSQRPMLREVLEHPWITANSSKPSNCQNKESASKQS

Compound | FLT3 Dmax (FLT3; protein degradation) | DC50 (FLT3; [5]) | IC50 (HPK1 [1]) | DC50 (Aurora A [2]; [6]) | Dmax (Aurora A [2]) | DC50 (HPK1 [3]; [7]) | Dmax (HPK1 [3]) | MEK 1/2 Dmax (MEK 1/2; [8]) | DC50 (MEK 1/2; [9]) | IC50 (FLT3-ITD) | IC50 (Aurora A [4]) | DC50 (MEK 1/2; read-out: MEK 1/2 DC50 (nM)/Dmax (%); protein degradation, MV-411 or IMR32 cells; class symbol) | IC50 (FLT3-ITD; [10]) | DC50 (FLT3; [11]) | Dmax (Aurora A [2]; [6]) | DC50 (HPK1 [3]; protein degradation, human PBMC, class symbol, read-out: HPK1 DC50 (nM)/Dmax (%)) | DC50 (MEK 1/2; [12]) | Dmax (HPK1 [3]; [13]) | DC50 (FLT3; protein degradation, read-out: FLT3 DC50)
CCc1c[nH]c2ncc(-c3cccc(N4CCCN(CC5CCN(c6ccc7c(c6)C(=O)N(C6CCC(=O)NC6=O)C7=O)CC5)C4=O)c3)c(Cl)c12 (centres unmarked) [Example 8, 5-(4-((3-(3-(4-chloro-3-ethyl-1H-pyrrolo [2,3-b]pyridin-5-yl)phenyl)-2-oxotetrahydropyrimidin-1 (2H)-yl)methyl)piperidin-1-yl)-2-(2,6-dioxopiperidin-3-yl) isoindoline-1,3-dione] | 95% | 8 nM | 15.7 nM | < 20 nM | 95% | 85 nM | 95% | 91% | 82 nM | 5.7 nM | 110 nM | – | – | – | – | – | – | – | –
O=C1CCC(N2C(=O)c3cc(F)c(N4CCC(CCN5CCCN(c6cccc(-c7cnc8[nH]cc(C9CC9)c8c7Cl)c6)C5=O)CC4)cc3C2=O)C(=O)N1 (centres unmarked) [Example 9, 5-(4-(2-(3-(3-(4-chloro-3-cyclopropyl-1H-pyrrolo [2,3-b]pyridin-5-yl)phenyl)-2-oxotetrahydropyrimidin-1 (2H)-yl)ethyl)piperidin-1-yl)-2-(2,6-dioxopiperidin-3-yl)-6-fluoroisoindoline-1,3-dione] | 60% | 100 nM | 62.9 nM | > 1000 nM | 50% | 294 nM | 50% | – | – | – | 131 nM | > 10000 nM | 36.5 nM | – | – | – | – | – | –
O=C1CCC(N2Cc3ccc(N4CCC(CN5CCCN(c6cccc(-c7cnc8[nH]cc(C9CC9)c8c7Cl)c6)C5=O)CC4)cc3C2=O)C(=O)N1 (centres unmarked) [Example 11] | – | – | 13.6 nM | 9 nM | – | – | – | 30% | – | – | 21.2 nM | – | 20.8 nM | > 10000 nM | 50% | > 10000 nM | 49 nM | – | –
O=C1CCC(N2Cc3ccc(N4CCC(CN5CCCN(c6cccc(-c7cnc8[nH]cc(CC(F)F)c8c7Cl)c6)C5=O)CC4)cc3C2=O)C(=O)N1 (centres unmarked) [Example 13] | – | – | 12.5 nM | 3 nM | – | 11 nM | – | 30% | – | – | 14.3 nM | – | 23.8 nM | > 10000 nM | 70% | – | < 1 nM | 50% | –
CCc1c[nH]c2ncc(-c3cccc(N4CCCN(CC5CCN(c6ccc(NC7CCC(=O)NC7=O)cc6F)CC5)C4=O)c3)c(Cl)c12 (centres unmarked) [Example 15, 3-((4-(4-((3-(3-(4-chloro-3-ethyl-1H-pyrrolo [2,3-b]pyridin-5-yl)phenyl)-2-oxotetrahydropyrimidin-1 (2H)-yl)methyl)piperidin-1-yl)-3-fluorophenyl)amino) piperidine-2,6-dione] | 34% | 0.02 nM | 4.6 nM | 9.6 nM | 82% | 6 nM | 80% | 38% | 1 nM | 8.8 nM | 19.9 nM | – | – | – | – | – | – | – | –
CCc1c[nH]c2ncc(-c3cccc(N4CCCN(CCC5CCN(c6ccc(NC7CCC(=O)NC7=O)cc6F)CC5)C4=O)c3)c(Cl)c12 (centres unmarked) [Example 16, 3-((4-(4-(2-(3-(3-(4-chloro-3-ethyl-1H-pyrrolo [2,3-b]pyridin-5-yl)phenyl)-2-oxotetrahydropyrimidin-1 (2H)-yl)ethyl)piperidin-1-yl)-3-fluorophenyl)amino) piperidine-2,6-dione] | 17% | 115 nM | 5.5 nM | 4.6 nM | 75% | 100 nM | 64% | 75% | 4.6 nM | 12.3 nM | 40.8 nM | – | – | – | – | – | – | – | –
CCc1c[nH]c2ncc(-c3cccc(N4CCCN(CCN5CCN(c6ccc(C7CCC(=O)NC7=O)cc6)CC5)C4=O)c3)c(Cl)c12 (centres unmarked) [Example 17] | 80% | – | 2.9 nM | 1 nM | – | 2.3 nM | – | 47% | – | – | 16.6 nM | – | 17.4 nM | – | 50% | – | 1 nM | 91% | 8.7 nM
CCc1c[nH]c2ncc(-c3cccc(N4CCCN(CCN5CCN(c6ccc(NC7CCC(=O)NC7=O)cc6F)CC5)C4=O)c3)c(Cl)c12 (centres unmarked) [Example 18] | – | – | 2.5 nM | 1.1 nM | – | 1 nM | – | 74% | – | – | 10.6 nM | – | 5.4 nM | > 10000 nM | 74% | – | 1 nM | 52% | –
